Measured values: US7718645B2, “Substituted bicyclolactam compounds” (Pfizer Inc., priority 2007, dated 2010)
Where two headings read alike, the source gives them in different places.

Molecular target: T1, Human full-length diacylglycerol:acylCoA acyltransferase 1 (DGAT-1) (Homo sapiens, UniProt O75907)
T1 construct: Human full-length diacylglycerol:acylCoA acyltransferase 1 (DGAT-1) was expressed in Sf9 insect cells; made in house; host or cells: Sf9 insect cells (baculovirus)
T1 sequence (O75907 1-488): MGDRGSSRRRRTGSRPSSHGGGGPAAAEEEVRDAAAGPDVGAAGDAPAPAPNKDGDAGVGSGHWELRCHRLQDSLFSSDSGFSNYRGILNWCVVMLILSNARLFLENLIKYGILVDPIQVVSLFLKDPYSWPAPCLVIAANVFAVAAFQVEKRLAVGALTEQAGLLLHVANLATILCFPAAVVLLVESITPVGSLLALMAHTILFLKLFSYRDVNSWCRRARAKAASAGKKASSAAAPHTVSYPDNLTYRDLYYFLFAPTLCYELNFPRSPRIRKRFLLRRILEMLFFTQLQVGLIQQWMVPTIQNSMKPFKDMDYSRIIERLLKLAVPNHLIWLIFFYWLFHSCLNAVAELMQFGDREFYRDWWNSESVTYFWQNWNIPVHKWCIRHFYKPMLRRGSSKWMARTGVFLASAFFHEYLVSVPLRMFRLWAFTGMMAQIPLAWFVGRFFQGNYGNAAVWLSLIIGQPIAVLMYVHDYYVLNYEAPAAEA
Experiment: In vitro assay for DGAT-1 inhibition ([14C]decanoylCoA, Sf9 membrane fraction)
Format: biochemical
Procedure: Human full-length diacylglycerol:acylCoA acyltransferase 1 (DGAT-1) was expressed in Sf9 insect cells which are then lysed and a crude membrane fraction (105,000×g pellet) was prepared.
The cells were cultured as follows. Sf9 cells (20 L) were infected with 4 mL of DGAT1 Baculovirus Infected Insect Cells (BIIC) for 72 hours in a Wave Bioreactor System 20/50P (Wave Biotec/GE Healthcare).
Crude DGAT-1 microsomes were prepared as follows. Cell pellets were washed once with ice-cold Dulbecco's phosphate-buffered saline. Cells were collected in tabletop centrifuge (Beckman GS-6KR), 15 minutes, 2000×g, 4° C. Twenty (20) mL of ice-cold Microsome Buffer (MB) was added per 5 g of cell pellet. The suspension was passed through a microfluidizer 3 times (18K psi). The lysate was transferred to centrifuge tubes and centrifuged for 20 minutes at 5000×g (Beckman-Coulter, Inc. Allegra® 64R High-Speed Refrigerated Benchtop Centrifuge, F0650 rotor) at 4° C. The supernatant was transferred to Ultracentrifuge tubes and centrifuged at […] for 1 hr in a Beckman Ti-45 rotor, 4° C. The supernatant fluid was discarded. The pellet was resuspended in 70 mL of MB by sonication. The microsome concentration was determined using Bio-Rad Protein DC Protein Assay. The microsomes were filter sterilized with a 0.22 μm filter. The samples were portioned, flash frozen and stored at −80° C.
Inhibitors in DMSO were pre-incubated with membranes before initiating the DGAT-1 reaction by the addition of decanoylCoA. […] The inhibitors were present at a range of eight concentrations to generate an apparent IC50 for each compound. […] Specifically, the eight concentrations used were 10 μM, 3 μM, 1 μM, 300 nM, 100 nM, 30 nM, 10 nM and 3 nM.
The reactions were allowed to proceed for 1.5 h at room temperature and then terminated by the addition of 10 μl of HCl (0.5 M). Reaction mixtures were neutralized by the addition of 15 μl of tris(hydroxy-methyl)aminomethane (1M, pH 8.0) and then mixed by trituration with 37.5 μl of Microscint™-E (Perkin Elmer).
Where this DGAT-1 inhibition assay was performed on a compound more than once, an inhibition range is also provided for that compound.

[1] = apparent IC50, eight inhibitor concentrations 10 μM to 3 nM, read-out: IC50
[2] = inhibition range where the assay was performed on a compound more than once, read-out: IC50 range
[3] = Examples 17-23 table, range of repeated assays, read-out: DGAT-1 IC50 Range
[4] = Examples 17-23 table, read-out: DGAT-1 IC50
[5] = Examples 24-25 table, range of repeated assays, read-out: DGAT-1 IC50 Range
[6] = Examples 24-25 table, read-out: DGAT-1 IC50

| IC50 [1] [nM] | IC50 [2] [nM] | IC50 [3] [nM] | IC50 [4] [nM] | Structure (SMILES) | also measured |
| --- | --- | --- | --- | --- | --- |
| 84.3 |  |  |  | COC(=O)CC1CC=C(c2ccc(N3CCOc4ncnc(N)c4C3=O)cc2)CC1 (racemic) [Example 52, Methyl(+)-{4-[4-(4-Amino-5-oxo-7,8-dihydropyrimido[5,4-f][1,4]oxazepin-6(5H)-yl)phenyl]cyclohex-3-en-1-yl}acetate] |  |
| < 10 | 3 to 27.2 |  |  | Nc1ncnc2c1C(=O)N(c1ccc([C@@H]3CC[C@@H]4[C@@H](CC(=O)O)CC[C@@H]43)cc1)CCO2 (racemic) [Example 55, ±{(1R,3aS,4R,6aR)4-[4-(4-Amino-5-oxo-7,8-dihydropyrimido[5,4-f][1,4]oxazepin-6(5H)-yl)phenyl]octahydropentalen-1-yl}acetic Acid] |  |
| 34.7 | 26.7 to 58.6 |  |  | Nc1ncnc2c1C(=O)N(c1ccc([C@H]3C[C@H]4C[C@@H]3C3C(C(=O)O)C34)cc1)CCO2 (mixture of isomers) [Example 57, (±)-(1R,5R,6S)-6-[4-(4-Amino-5-oxo-7,8-dihydropyrimido[5,4-f][1,4]oxazepin-6(5H)-yl)phenyl]tricyclo[3.2.1.0˜2.4˜]octane-3-carboxylic Acid] |  |
| 36.4 | 33.8 to 39.3 |  |  | Nc1ncnc2c1C(=O)N(c1ccc(C3=CCC(CC(=O)O)CC3)cc1)CCO2 (single isomer, unassigned; (+)) [Example 53, (+)-{4-[4-(4-Amino-5-oxo-7,8-dihydropyrimido[5,4-f][1,4]oxazepin-6(5H)-yl)phenyl]cyclohex-3-en-1-yl}acetic Acid] |  |
| 44.5 | 34.2 to 75 |  |  | CS(=O)(=O)NC(=O)C[C@H]1CC[C@H](c2ccc(N3CCOc4ncnc(N)c4C3=O)cc2)CC1 [Example 26, 2-{Trans-4-[4-(4-amino-5-oxo-7,8-dihydropyrimido[5,4-f][1,4]oxazepin-6(5H)-yl)phenyl]cyclohexyl}-N-(methylsulfonyl)acetamide] |  |
| 52.2 | 11.4 to 68.1 |  |  | C[C@@H]1CN(c2ccc([C@H]3CC[C@H](CC(N)=O)CC3)cc2)C(=O)c2c(N)ncnc2O1 [Example 27, (Trans-4-{4-[(8R)-4-amino-8-methyl-5-oxo-7,8-dihydropyrimido[5,4-f][1,4]oxazepin-6(5H)-yl]phenyl}cyclohexyl)acetamide] |  |
| 11.3 | 7.3 to 19.9 |  |  | C[C@@H]1CN(c2ccc(C3CCC(CC(N)=O)CC3)c(F)c2)C(=O)c2c(N)ncnc2O1 (stereo partly drawn) [Example 28, (R)-2-(4-(4-(4-amino-8-methyl-5-oxo-7,8-dihydropyrimido[5,4-f][1,4]oxazepin-6(5H)-yl)-2-fluorophenyl)cyclohexyl)acetamide] |  |
| 38.4 | 30.1 to 48.1 |  |  | C[C@@H]1CN(c2ccc([C@H]3CC[C@H](CC#N)CC3)cc2)C(=O)c2c(N)ncnc2O1 [Example 47, (Trans-4-{4-[(8R)-4-amino-8-methyl-5-oxo-7,8-dihydropyrimido[5,4-f][1,4]oxazepin-6(5H)-yl]phenyl}cyclohexyl)acetonitrile] |  |

Second part, the compound before the results:

| Structure (SMILES) | IC50 [1] [nM] | IC50 [2] [nM] | IC50 [3] [nM] | IC50 [4] [nM] | also measured |
| --- | --- | --- | --- | --- | --- |
| C[C@H]1COc2ncnc(N)c2C(=O)N1c1ccc([C@H]2CC[C@H](CC(=O)O)CC2)cc1 [Example 5] | 33.9 |  |  |  |  |
| Nc1ncnc2c1C(=O)N(c1ccc(C3CCC(CC(=O)O)CC3)cc1F)CCO2 (stereo not drawn) [Example 6, 2-(4-(4-(4-amino-5-oxo-7,8-dihydropyrimido[5,4-f][1,4]oxazepin-6(5H)-yl)-3-fluorophenyl)cyclohexyl)acetic Acid] | 55.5 | 29.1 to 89.6 |  |  |  |
| CCOC(=O)C[C@H]1CC[C@H](c2ccc(N3CC(C)(C)Oc4ncnc(N)c4C3=O)cc2)CC1 [Example 7, ethyl {trans-4-[4-(4-amino-8,8-dimethyl-5-oxo-7,8-dihydropyrimido[5,4-f][1,4]oxazepin-6(5H)-yl)phenyl]cyclohexyl}acetate] | 183 |  |  |  |  |
| COC(=O)C[C@H]1CC[C@H](c2ccc(N3CCOc4nc(C)nc(N)c4C3=O)cc2)CC1 [Example 9, methyl {trans-4-[4-(4-amino-2-methyl-5-oxo-7,8-dihydropyrimido[5,4-f][1,4]oxazepin-6(5H)-yl)phenyl]cyclohexyl}acetate] | 239 |  |  |  |  |
| CCC1CN(c2ccc(C3CCC(CC(=O)O)CC3)cc2)C(=O)c2c(N)ncnc2O1 (stereo not drawn) [Example 13, {4-[4-(4-Amino-8-ethyl-5-oxo-7,8-dihydro-5H-9-oxa-1,3,6-triaza-benzocyclohepten-6-yl)-phenyl]-cyclohexyl}-acetic acid] | 1330 | 1070 to 1660 |  |  |  |
| CC1COc2ncnc(N)c2C(=O)N1c1ccc(C2CCC(CC(=O)O)CC2)cc1 (stereo not drawn) [Example 15, {4-[4-(4-Amino-7-methyl-5-oxo-7,8-dihydro-5H-9-oxa-1,3,6-triaza-benzocyclohepten-6-yl)-phenyl]-cyclohexyl}-acetic acid] | 27.3 | 13.6 to 77.9 |  |  |  |
| C[C@@H]1CN(c2ccc(C3CCC(CC(=O)O)CC3)c(F)c2)C(=O)c2c(N)ncnc2O1 (stereo partly drawn) [Example 17, (R)-2-(4-(4-(4-amino-8-methyl-5-oxo-7,8-dihydropyrimido[5,4-f][1,4]oxazepin-6(5H)-yl)-2-fluorophenyl)cyclohexyl)acetic acid] |  |  | 3 to 15.5 | < 6.21 |  |
| Nc1ncnc2c1C(=O)N(c1ccc(C3CCC(CC(=O)O)CC3)c(Cl)c1)CCO2 (stereo not drawn) [Example 18, 2-(4-(4-(4-amino-5-oxo-7,8-dihydropyrimido[5,4-f][1,4]oxazepin-6(5H)-yl)-2-chlorophenyl)cyclohexyl)acetic acid] |  |  | 4.4 to 6.9 | 5.82 |  |
| Nc1ncnc2c1C(=O)N(c1ccc(C3CCC(CC(=O)O)CC3)c(F)c1)CCO2 (stereo not drawn) [Example 19, 2-(4-(4-(4-amino-5-oxo-7,8-dihydropyrimido[5,4-f][1,4]oxazepin-6(5H)-yl)-2-fluorophenyl)cyclohexyl)acetic acid] |  |  | 3 to 15.5 | < 8.26 |  |
| Cc1cc(N2CCOc3ncnc(N)c3C2=O)ccc1C1CCC(CC(=O)O)CC1 (stereo not drawn) [Example 20, 2-(4-(4-(4-amino-5-oxo-7,8-dihydropyrimido[5,4-f][1,4]oxazepin-6(5H)-yl)-2-methylphenyl)cyclohexyl)acetic acid] |  |  | 8.6 to 17.2 | 13 |  |
| Cc1cc(N2C[C@@H](C)Oc3ncnc(N)c3C2=O)ccc1C1CCC(CC(=O)O)CC1 (stereo partly drawn) [Example 21, (R)-2-(4-(4-(4-amino-8-methyl-5-oxo-7,8-dihydropyrimido[5,4-f][1,4]oxazepin-6(5H)-yl)-2-methylphenyl)cyclohexyl)acetic acid] |  |  | 6.1 to 37.4 | 14.8 |  |
| C[C@@H]1CN(c2ccc(C3CCC(CC(=O)O)CC3)cc2F)C(=O)c2c(N)ncnc2O1 (stereo partly drawn) [Example 22, (R)-2-(4-(4-(4-amino-8-methyl-5-oxo-7,8-dihydropyrimido[5,4-f][1,4]oxazepin-6(5H)-yl)-3-fluorophenyl)cyclohexyl)acetic acid] |  |  | 27.9 to 34.5 | 30 |  |
| Cc1cc(C2CCC(CC(=O)O)CC2)ccc1N1CCOc2ncnc(N)c2C1=O (stereo not drawn) [Example 23, 2-(4-(4-(4-amino-5-oxo-7,8-dihydropyrimido[5,4-f][1,4]-oxazepin-6(5H)-yl)-3-methylphenyl)cyclohexyl)acetic acid] |  |  | 643 to 2270 | 1410 |  |
| C[C@@H]1CN(c2ccc([C@H]3CC[C@@H](CC(=O)O)CC3)c(F)c2)C(=O)c2c(N)ncnc2O1 [Example 24, (cis-4-{4-[(8R)-4-amino-8-methyl-5-oxo-7,8-dihydropyrimido[5,4-f][1,4]oxazepin-6(5H)-yl]-2-fluorophenyl}cyclohexyl)acetic acid] |  |  |  |  | IC50 [5]: 1.7 to 13.2 nM; IC50 [6]: 4.6 nM |
| C[C@@H]1CN(c2ccc([C@H]3CC[C@H](CC(=O)O)CC3)c(F)c2)C(=O)c2c(N)ncnc2O1 [Example 25, (trans-4-{4-[(8R)-4-amino-8-methyl-5-oxo-7,8-dihydropyrimido[5,4-f][1,4]oxazepin-6(5H)-yl]-2-fluorophenyl}cyclohexyl)acetic acid] |  |  |  |  | IC50 [5]: 10 to 17 nM; IC50 [6]: 12.3 nM |
